{
  "source": "patent US20250368644A1",
  "about": "“DURLOBACTAM CRYSTALLINE FORMS” (Entasis Therapeutics Limited, priority 2022, published 2025)",
  "key": {"[1]": {"test": "Stability of DUR, its salts and crystalline forms (observations in words)", "conditions": "for Stability of the crystalline form: DUR-Ca polymorphs, solvent systems, Calcium salt", "experimental": "(§1) Attempts were undertaken to form DUR-Ca via salt metathesis by slurry reaction of DUR-TBA salt with six calcium salts (CaCl2), CaBr2, Ca(BF4)2. Ca(OAc)2, Calcium D-gluconate and Calcium citrate) to find an alternative method to the ion exchange resin, which is very time consuming and costly to scale up.\nA range of crystallization experiments were carried out, including evaporations, ambient temperature slurries, vapor stress at ambient temperature and temperature cycling, in many different solvents, or solvent mixtures, using crystalline DUR-Ca, DUR-TBA, and DUR-TEA salts as seeds."}, "[2]": {"system": "β-lactamases commonly found in A. baumannii", "conditions": "preclinical studies, background statement; cited from earlier work"}, "[3]": {"test": "Solubility of the salt in solvents (observations in words)", "assay_type": "physicochemical", "description": "as §1"}, "[4]": {"test": "Salt slurry experiments with DUR-Ca Form A (solid form after slurry in solvents)", "assay_type": "physicochemical", "conditions": "3 days", "description": "DUR-Ca Form A was slurred in 26 solvents for 3 days. A new distinct form (assigned as Form C) was obtained in most of solvents (Table 19)."}},
  "note": "Counter-ions that a name gives are not always drawn.",
  "data": [
    {"smiles": "CC1=C[C@@H]2CN(C(=O)N2OS(=O)(=O)O)[C@@H]1C(N)=O", "note": "[DUR-Ca Form C, Durlobactam Calcium salt]", "values": [
      {"measurement": "Stability of the crystalline form", "setting": "[1]; listed as crystalline form C", "value": "more stable"}
    ]},
    {"smiles": "CC1=C[C@@H]2CN(C(=O)N2OS(=O)(=O)O)[C@@H]1C(N)=O", "note": "[DUR, Durlobactam]", "values": [
      {"measurement": "Chemical stability (degradation)", "setting": "[1]; free acid", "value": "readily degraded"},
      {"measurement": "Inhibition of β-lactamases", "setting": "[2]", "value": "inhibit the β-lactamases commonly found in A. baumannii"}
    ]},
    {"smiles": "CC1=C[C@@H]2CN(C(=O)N2OS(=O)(=O)O)[C@@H]1C(N)=O", "note": "[DUR-TBA, Durlobactam Tetrabutylammonium salt]", "values": [
      {"measurement": "Solubility", "setting": "[3]; EtOH", "value": "soluble"},
      {"measurement": "Solubility", "setting": "[3]; most solvents", "value": "soluble in most solvents"}
    ]},
    {"smiles": "CC1=C[C@@H]2CN(C(=O)N2OS(=O)(=O)O)[C@@H]1C(N)=O", "note": "[DUR-Ca Form A, Durlobactam Calcium salt]", "values": [
      {"measurement": "Stability of the crystalline form", "setting": "[1]; listed as Crystalline form A", "value": "unstable in certain solvent systems"},
      {"measurement": "Result (solid form after slurry)", "setting": "[4]; Slurry 1, Methanol", "value": "Form C"},
      {"measurement": "Result (solid form after slurry)", "setting": "[4]; Slurry 2, Ethanol", "value": "Form C"},
      {"measurement": "Result (solid form after slurry)", "setting": "[4]; Slurry 3, IPA", "value": "Form C"},
      {"measurement": "Result (solid form after slurry)", "setting": "[4]; Slurry 4, THF", "value": "Amorphous"},
      {"measurement": "Result (solid form after slurry)", "setting": "[4]; Slurry 5, EtOAc", "value": "Form C"},
      {"measurement": "Result (solid form after slurry)", "setting": "[4]; Slurry 6, Acetone", "value": "Form C"},
      {"measurement": "Result (solid form after slurry)", "setting": "[4]; Slurry 7, Isobutanol", "value": "Form C"},
      {"measurement": "Result (solid form after slurry)", "setting": "[4]; Slurry 8, Isopropyl Acetate", "value": "Form C"},
      {"measurement": "Result (solid form after slurry)", "setting": "[4]; Slurry 9, Acetonitrile", "value": "Form C"},
      {"measurement": "Result (solid form after slurry)", "setting": "[4]; Slurry 10, 2-Butanone", "value": "Form C"},
      {"measurement": "Result (solid form after slurry)", "setting": "[4]; Slurry 11, Toluene", "value": "Mixture of Form A and C"},
      {"measurement": "Result (solid form after slurry)", "setting": "[4]; Slurry 13, Tert-butyl methyl ether", "value": "Form C"},
      {"measurement": "Result (solid form after slurry)", "setting": "[4]; Slurry 14, Propanol", "value": "Form C"},
      {"measurement": "Result (solid form after slurry)", "setting": "[4]; Slurry 15, Isopentanol", "value": "Form C"},
      {"measurement": "Result (solid form after slurry)", "setting": "[4]; Slurry 16, Butyl acetate", "value": "Form C"},
      {"measurement": "Result (solid form after slurry)", "setting": "[4]; Slurry 17, Ethyl Formate", "value": "Form C"},
      {"measurement": "Result (solid form after slurry)", "setting": "[4]; Slurry 18, 1,4-dioxane", "value": "Amorphous"},
      {"measurement": "Result (solid form after slurry)", "setting": "[4]; Slurry 19, Butanol", "value": "Form C"},
      {"measurement": "Result (solid form after slurry)", "setting": "[4]; Slurry 20, Heptane", "value": "Form C"},
      {"measurement": "Result (solid form after slurry)", "setting": "[4]; Slurry 21, Pentane", "value": "Form C"},
      {"measurement": "Result (solid form after slurry)", "setting": "[4]; Slurry 22, Cyclohexane", "value": "Form C"},
      {"measurement": "Result (solid form after slurry)", "setting": "[4]; Slurry 23, Methylisobutyl Ketone", "value": "Form C"},
      {"measurement": "Result (solid form after slurry)", "setting": "[4]; Slurry 24, Xylene", "value": "Form C"},
      {"measurement": "Result (solid form after slurry)", "setting": "[4]; Slurry 25, Isobutyl acetate", "value": "Form C"},
      {"measurement": "Result (solid form after slurry)", "setting": "[4]; Slurry 26, Ethyl ether", "value": "Form C"}
    ]},
    {"smiles": "CC1=CC2CN(C(=O)N2OS(=O)(=O)O)C1C(N)=O.c1ccncc1", "note": "(centres unmarked) [pyridine salt]", "values": [
      {"measurement": "Stability of the salt as isolated solid", "setting": "[1]", "value": "not stable"}
    ]}
  ]
}
